Reference: patent EP0082731A1, “The use of peptides as medicaments” (NOVO INDUSTRI A/S, priority 1981, dated 1983)

Assays:
[1] = system: rats; experiment: Experiment A: effect on IRI-release in glucose-infused rats in vivo (RIA on plasma); design: species or system Wistar strain; details: anaesthetized rats, i.v. glucose 1.5 mg/min + glucagon(1-21) 100 µg/kg/h
Procedure: 10 male rats, Wistar strain, 150 g (+/- 5 g) were anaesthetized with Pentobarbital. Polyethylene catheters were inserted into the right carotid artery for blood sampling and the left jugular vein for infusions. The rats were divided into two groups with 5 animals in each group. One group was infused with glucose (1.5 mg/min) from 0 to 60 minutes (placebo) and one group was infused with glucose (1.5 mg/min) + glucagon(1-21) (100 µg/kg/h) from […]. Blood was sampled into glasses on ice containing heparin (250 IU/ml) and aprotinin (600 KIU/ml) at the times 0, 1, 10, 20, 30, 40, 50, and 60 minutes. Insulin was determined by radio- immuno assay (RIA) on plasma.

[2] = system: rats; experiment: Experiment B1: effect on blood glucose in rats in vivo, intravenous glucose infusion; design: species or system Wistar rats; details: for Blood glucose: rats, i.v. glucose 2 mg/min 0-30 min, then infusion of 1 mg glucagon(1-21) 30-60 min
Procedure: Blood samples were drawn from the carotid artery at the times 0, 2, 5, 10, 20, 25, 30, 40, 50, and 60 minutes and blood glucose values were determined by the hexokinase method on an autoanalyzer. The blood glucose values are stated in Table II below.

[3] = system: rats; experiment: Experiment B2: oral glucose tolerance test in rats; assay type: in vivo, Wistar rats; details: glucose 5 g/kg perorally at 0 and 60 min, glucagon(1-21) 1 mg/kg at 0, 30, 60, 90 min
Procedure: The effect of glucagon(1-21) was investigated in rats during an oral glucose tolerance test. 20 male Wistar rats were divided into 2 groups of 10 rats-and dosed as follows: Both groups were dosed with glucose (5 g/kg, perorally) at 0 and 60 minutes. The placebo group was dosed with 1 ml of 0.9% saline with 0.1% HSA intraperitoneally at the times 0, 30, 60, and 90 minutes. The other group was dosed with glucagon(1-21) (1 mg/kg) in 0.9% saline with HSA . at the times 0, 30, 60, and 90 minutes. Blood samples were drawn from the tails at the times -5, 0, 15, 30, 45, 60, 90, and 120 minutes for blood glucose determination. The blood glucose values are stated in Table III below.

[4] = system: pigs; experiment: Experiment C1: effect on plasma glucose in pigs during intravenous glucose infusion; assay type: in vivo, pigs (Danish breed/Yorkshire); details: for Plasma glucose: pigs, cross-over, i.v. glucose 0.7 g/kg/h + glucagon(1-21) 100 µg/kg/h 0-120 min
Procedure: The effect of glucagon(1-21) on plasma glucose levels was investigated during an intravenous glucose infusion. 4 female pigs (Danish breed/Yorkshire) weighing 30 kg (+/- 3 kg) were dosed with glucose (0.7 g/kg/h) as an intravenous infusion and with the same glucose infusion + infusion of glucagon(-1-21) (100µg/kg/h) from 0 to 120 minutes. The experiment was carried out as a cross-over experiment. The pigs were infused through intravenous ear catheters and blood samples were taken from the other ear at the times 0, 15, 30, 45, 60, 75, 90, 105, and 120 minutes. Glucose was analyzed by the hexokinase method and the blood glucose values are stated in Table IV below.

[5] = system: pigs; experiment: Experiment C2: oral glucose tolerance test in pigs; assay type: in vivo; details: cross-over, glucose 5 g/kg perorally at 0 and 60 min, glucagon(1-21) 1 mg/kg/h i.v. 0-120 min
Procedure: The effect of glucagon(1-21) on plasma glucose levels was investigated during an oral glucose tolerance test in pigs. 4 pigs were dosed in a cross-over experiment with glucose (5 g/kg) perorally at 0 and 60 minutes + placebo (saline with HSA) or glucagon(1-21) (1 mg/kg/h) from 0 to 120 minutes intravenously. Blood samples were drawn from an ear vein at the times -5, 10, 20, 30, 45, 60, 75, 90, 105, and 120 minutes and plasma glucose was assayed by the hexokinase method. The plasma glucose values are stated in Table V below: […]

[6] = system: Normoglycaemic Rats; experiment: Experiment D: effect on plasma glucose and plasma IRI levels in normoglycaemic rats; assay type: in vivo, Wistar rats; details: for Blood glucose / Plasma IRI: i.v. injection at 0 min, equimolar doses (glucagon 1 mg/kg, glucagon(1-21) 0.77 mg/kg), mean, N = 10
Procedure: Glucagon (-1 mg/kg) and an equimolar dosis of glucagon(1-21), i.e. 0.77 mg/kg, were injected intravenously at the beginning time (time: 0 minutes) to normally fed male Wistar rats weighing 150 g (+/- 5 g). Blood samples were taken from the orbital plexus at the times -5, 2, 5, 10, 15, 30, and 60 minutes. Blood glucose was assayed according to the hexokinase method and plasma insulin was assayed by RIA. […] Contrary to glucagon, glucagon(1-21) had no effect on these parameters. Mean blood glucose values (N = 10) are stated in Table VI below, and mean plasma IRI values (N = 10) are stated in Table VII below.

[7] = system: NMRI mice; experiment: Experiment E: acute toxicity study; assay type: in vivo; details: 10 mg intravenously as a bolus, about 500 mg/kg body weight
[8] = system: rat free fat cells; experiment: Lipolytic effect on rat free fat cells in vitro; assay type: cell-based; details: compared with glucagon
[9] = system: rats; experiment: Metabolic effects after administration to normally fasted and fed rats in vivo
[10] = normally fed rats, i.v., glucagon 1 mg/kg, glucagon(1-21) 0.77 mg/kg

Substance: glucagon-(1-21)-heneicosapeptide (HSQGTFTSDYSKYLDSRRAQD; Glucagon; UniProt P01275 53-73, looked up, fragment) [glucagon(1-21)]
- IRI ([1]; time 0 min): 18 µU/ml
- IRI ([1]; time 1 min): 43 µU/ml
- IRI ([1]; time 10 min): 48 µU/ml
- IRI ([1]; time 20 min): 62 µU/ml
- IRI ([1]; time 30 min): 56 µU/ml
- IRI ([1]; time 40 min): 56 µU/ml
- IRI ([1]; time 50 min): 60 µU/ml
- IRI ([1]; time 60 min): 55 µU/ml
- glucose tolerance ([2]; glucose primed rats, infused intravenously): improves the glucose tolerance
- Blood glucose ([2]; time 0 min): 1.0 mg/mL
- Blood glucose ([2]; time 2 min): 1.2 mg/mL
- Blood glucose ([2]; time 5 min): 1.4 mg/mL
- Blood glucose ([2]; time 10 min): 1.5 mg/mL
- Blood glucose ([2]; time 20 min): 1.7 mg/mL
- Blood glucose ([2]; time 25 min): 1.9 mg/mL
- Blood glucose ([2]; time 30 min): 1.9 mg/mL
- Blood glucose ([2]; time 40 min): 1.3 mg/mL
- Blood glucose ([2]; time 50 min): 1.0 mg/mL
- Blood glucose ([2]; time 60 min): 0.8 mg/mL
- Blood glucose ([3]; time 0 min): 0.96 mg/mL
- Blood glucose ([3]; time 15 min): 1.32 mg/mL
- Blood glucose ([3]; time 30 min): 1.35 mg/mL
- Blood glucose ([3]; time 45 min): 1.23 mg/mL
- Blood glucose ([3]; time 60 min): 1.36 mg/mL
- Blood glucose ([3]; time 90 min): 1.37 mg/mL
- Blood glucose ([3]; time 120 min): 1.37 mg/mL
- Blood glucose ([3]; time -5 min): 0.89 mg/mL
- glucose tolerance ([4]; glucose primed pigs, infused intravenously): improves the glucose tolerance
- Plasma glucose ([4]; time 0 min): 0.9 mg/mL
- Plasma glucose ([4]; time 15 min): 1.5 mg/mL
- Plasma glucose ([4]; time 30 min): 1.7 mg/mL
- Plasma glucose ([4]; time 45 min): 1.8 mg/mL
- Plasma glucose ([4]; time 60 min): 1.9 mg/mL
- Plasma glucose ([4]; time 75 min): 1.8 mg/mL
- Plasma glucose ([4]; time 90 min): 2.0 mg/mL
- Plasma glucose ([4]; time 105 min): 1.9 mg/mL
- Plasma glucose ([4]; time 120 min): 1.9 mg/mL
- Plasma glucose ([5]; time 10 min): 1.0 mg/mL
- Plasma glucose ([5]; time 20 min): 1.4 mg/mL
- Plasma glucose ([5]; time 30 min): 1.7 mg/mL
- Plasma glucose ([5]; time 45 min): 1.8 mg/mL
- Plasma glucose ([5]; time 60 min): 1.9 mg/mL
- Plasma glucose ([5]; time 75 min): 1.8 mg/mL
- Plasma glucose ([5]; time 90 min): 1.7 mg/mL
- Plasma glucose ([5]; time 105 min): 1.7 mg/mL
- Plasma glucose ([5]; time 120 min): 2.1 mg/mL
- Plasma glucose ([5]; time -5 min): 0.8 mg/mL
- hyperglycaemia ([6]; in vivo in normally fed rats): does not cause hyperglycaemia
- insulin release ([6]; in vivo in normally fed rats): does not cause hyperglycaemia or release insulin
- IRI release and plasma glucose levels ([6]; infused to rats and pigs with plasma glucose levels below 1.2 mg/ml): neither release IRI nor influence the plasma glucose levels
- Blood glucose ([6]; normally fed rats, time 2 min): 1.1 mg/mL
- Plasma IRI ([6]; normally fed rats, time 2 min): 30 µU/ml
- Blood glucose ([6]; normally fed rats, time 5 min): 1.1 mg/mL
- Plasma IRI ([6]; normally fed rats, time 5 min): 33 µU/ml
- Blood glucose ([6]; normally fed rats, time 10 min): 1.2 mg/mL
- Plasma IRI ([6]; normally fed rats, time 10 min): 35 µU/ml
- Blood glucose ([6]; normally fed rats, time 15 min): 1.3 mg/mL
- Plasma IRI ([6]; normally fed rats, time 15 min): 43 µU/ml
- Blood glucose ([6]; normally fed rats, time 30 min): 1.3 mg/mL
- Plasma IRI ([6]; normally fed rats, time 30 min): 38 µU/ml
- Blood glucose ([6]; normally fed rats, time 60 min): 1.3 mg/mL
- Plasma IRI ([6]; normally fed rats, time 60 min): 30 µU/ml
- Blood glucose ([6]; normally fed rats, time -5 min): 1.0 mg/mL
- Plasma IRI ([6]; normally fed rats, time -5 min): 32 µU/ml
- effect on blood glucose [6, 10]: no effect
- effect on plasma IRI [6, 10]: no effect
- adverse effects [7]: no adverse effects
- deaths [7]: No deaths occurred
- lipolytic effect [8]: negligible
- metabolic effects [9]: No metabolic effects have been found
